Assay in all cases: KinomeScan kinase panel, single concentration 10 µM
Holding throughout (format): binding

Assay [1] addresses T1, KinomeScan kinase panel (Homo sapiens, UniProt Q16659).
T1 construct: purchased DiscoveRx (KinomeScan)
The settings on record: ERK3, 10 µM; read-out: score (%).

The target in assay [2] is T2, KinomeScan kinase panel (Homo sapiens, UniProt P00519, H396P).
T2 construct: purchased DiscoveRx (KinomeScan)
The settings on record: 10 µM, read-out: score (%).

In assay [3] the target is T3, KinomeScan kinase panel (Homo sapiens, UniProt P04629).
T3 construct: purchased DiscoveRx (KinomeScan)
Particulars: 10 µM, read-out: score (%).

The target of assay [4] is T4, KinomeScan kinase panel (Homo sapiens, UniProt P07332).
T4 construct: purchased DiscoveRx (KinomeScan)
The settings on record: FES, 10 µM; read-out: score (%).

In assay [5] the target is T5, KinomeScan kinase panel (Homo sapiens, UniProt O95819).
T5 construct: purchased DiscoveRx (KinomeScan)
Particulars: MAP4K4, 10 µM; read-out: score (%).

Assay [6] concerns the target T6, KinomeScan kinase panel (Homo sapiens, UniProt Q96D53).
T6 construct: purchased DiscoveRx (KinomeScan)
T6 sequence (Q96D53 1-544): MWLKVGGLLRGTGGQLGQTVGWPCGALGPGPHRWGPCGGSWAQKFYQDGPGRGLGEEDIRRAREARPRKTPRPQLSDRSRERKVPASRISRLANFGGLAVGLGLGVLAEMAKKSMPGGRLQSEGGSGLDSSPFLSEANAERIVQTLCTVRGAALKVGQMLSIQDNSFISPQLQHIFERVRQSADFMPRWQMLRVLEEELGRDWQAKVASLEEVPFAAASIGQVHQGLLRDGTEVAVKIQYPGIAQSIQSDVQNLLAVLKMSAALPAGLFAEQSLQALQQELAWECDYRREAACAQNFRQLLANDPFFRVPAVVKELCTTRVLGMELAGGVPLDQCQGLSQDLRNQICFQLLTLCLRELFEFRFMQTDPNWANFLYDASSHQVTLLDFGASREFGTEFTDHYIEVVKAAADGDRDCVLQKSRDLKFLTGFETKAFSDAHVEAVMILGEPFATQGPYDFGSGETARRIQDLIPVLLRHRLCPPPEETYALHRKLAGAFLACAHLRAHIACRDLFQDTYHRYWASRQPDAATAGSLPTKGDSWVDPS
Particulars: ADCK4, 10 µM; read-out: score (%).

The target in assay [7] is T7, KinomeScan kinase panel (Homo sapiens, UniProt P68400).
T7 construct: purchased DiscoveRx (KinomeScan)
The settings on record: CSNK2A1, 10 µM; read-out: score (%).

Assay [8] deals with T8, KinomeScan kinase panel (Homo sapiens, UniProt Q16512).
T8 construct: purchased DiscoveRx (KinomeScan)
The settings on record: PKN1, 10 µM; read-out: score (%).

The target of assay [9] is T9, KinomeScan kinase panel (Homo sapiens, UniProt P50613).
T9 construct: purchased DiscoveRx (KinomeScan)
Particulars: CDK7, 10 µM; read-out: score (%).

Assay [10] has as its target T10, KinomeScan kinase panel (Homo sapiens, UniProt O00444).
T10 construct: purchased DiscoveRx (KinomeScan)
T10 sequence (O00444 1-970): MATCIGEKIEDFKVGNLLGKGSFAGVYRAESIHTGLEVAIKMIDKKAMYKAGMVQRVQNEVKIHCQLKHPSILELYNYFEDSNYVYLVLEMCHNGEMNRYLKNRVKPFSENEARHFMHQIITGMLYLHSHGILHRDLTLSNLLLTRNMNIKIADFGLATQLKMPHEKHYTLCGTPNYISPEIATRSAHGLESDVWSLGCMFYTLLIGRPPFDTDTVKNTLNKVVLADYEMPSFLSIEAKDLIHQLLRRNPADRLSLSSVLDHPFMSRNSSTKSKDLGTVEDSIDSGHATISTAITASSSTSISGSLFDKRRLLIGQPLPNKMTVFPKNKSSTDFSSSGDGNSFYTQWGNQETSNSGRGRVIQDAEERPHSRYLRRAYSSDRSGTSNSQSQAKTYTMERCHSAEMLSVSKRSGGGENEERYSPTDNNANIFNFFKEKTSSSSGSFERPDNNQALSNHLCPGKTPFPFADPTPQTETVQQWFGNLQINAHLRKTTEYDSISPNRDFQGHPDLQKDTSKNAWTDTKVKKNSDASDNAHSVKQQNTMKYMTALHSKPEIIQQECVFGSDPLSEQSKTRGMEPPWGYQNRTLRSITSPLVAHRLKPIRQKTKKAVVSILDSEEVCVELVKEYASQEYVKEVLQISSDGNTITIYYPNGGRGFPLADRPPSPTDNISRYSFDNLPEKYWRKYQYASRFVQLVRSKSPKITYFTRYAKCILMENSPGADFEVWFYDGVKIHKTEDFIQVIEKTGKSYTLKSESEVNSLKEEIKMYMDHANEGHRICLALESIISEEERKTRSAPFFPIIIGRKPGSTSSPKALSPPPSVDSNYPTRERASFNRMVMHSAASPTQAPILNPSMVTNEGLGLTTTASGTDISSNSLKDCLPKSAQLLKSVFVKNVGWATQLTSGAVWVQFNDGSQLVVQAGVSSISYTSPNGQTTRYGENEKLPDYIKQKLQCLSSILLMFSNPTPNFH
The settings on record: read-out: score (%).

In assay [11] the target is T11, KinomeScan kinase panel (Homo sapiens, UniProt P12931).
T11 construct: purchased DiscoveRx (KinomeScan)
The settings on record: 10 µM, read-out: score (%).

Read-outs that look alike come from different tables or passages of the source.

This passage reports remaining binding results from publication PMC4457528, “Identification of Novel Small Molecule Inhibitors of Oncogenic RET Kinase” (PLoS ONE, 2015).

T9 sequence (P50613 whole entry): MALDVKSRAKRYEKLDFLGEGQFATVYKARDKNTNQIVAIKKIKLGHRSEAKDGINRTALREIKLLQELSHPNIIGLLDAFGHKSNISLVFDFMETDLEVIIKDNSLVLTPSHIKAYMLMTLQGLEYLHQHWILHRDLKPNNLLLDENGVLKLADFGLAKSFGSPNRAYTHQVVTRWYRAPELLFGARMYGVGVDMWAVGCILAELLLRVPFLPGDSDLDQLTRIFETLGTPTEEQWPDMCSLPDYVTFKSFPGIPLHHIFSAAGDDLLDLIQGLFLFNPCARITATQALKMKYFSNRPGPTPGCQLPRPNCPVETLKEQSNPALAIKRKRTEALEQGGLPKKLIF
T1 sequence (Q16659 whole entry): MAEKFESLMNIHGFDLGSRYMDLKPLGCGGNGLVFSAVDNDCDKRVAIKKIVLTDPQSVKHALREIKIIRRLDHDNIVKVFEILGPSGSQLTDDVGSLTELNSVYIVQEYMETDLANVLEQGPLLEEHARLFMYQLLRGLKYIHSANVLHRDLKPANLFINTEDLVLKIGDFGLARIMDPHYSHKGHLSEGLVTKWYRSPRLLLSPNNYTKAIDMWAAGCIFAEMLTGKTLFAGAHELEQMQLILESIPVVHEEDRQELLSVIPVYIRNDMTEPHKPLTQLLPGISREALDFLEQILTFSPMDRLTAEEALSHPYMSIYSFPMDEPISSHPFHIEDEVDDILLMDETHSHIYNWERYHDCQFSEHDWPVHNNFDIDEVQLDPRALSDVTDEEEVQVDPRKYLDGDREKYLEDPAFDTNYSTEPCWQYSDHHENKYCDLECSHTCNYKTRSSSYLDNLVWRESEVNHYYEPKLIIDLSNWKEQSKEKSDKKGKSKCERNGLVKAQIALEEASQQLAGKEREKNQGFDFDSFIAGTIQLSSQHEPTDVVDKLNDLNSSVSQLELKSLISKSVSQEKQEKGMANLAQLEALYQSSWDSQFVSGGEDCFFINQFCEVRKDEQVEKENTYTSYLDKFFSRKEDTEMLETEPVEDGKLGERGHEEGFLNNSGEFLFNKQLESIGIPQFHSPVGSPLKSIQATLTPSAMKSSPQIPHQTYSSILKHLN
T8 sequence (Q16512 whole entry): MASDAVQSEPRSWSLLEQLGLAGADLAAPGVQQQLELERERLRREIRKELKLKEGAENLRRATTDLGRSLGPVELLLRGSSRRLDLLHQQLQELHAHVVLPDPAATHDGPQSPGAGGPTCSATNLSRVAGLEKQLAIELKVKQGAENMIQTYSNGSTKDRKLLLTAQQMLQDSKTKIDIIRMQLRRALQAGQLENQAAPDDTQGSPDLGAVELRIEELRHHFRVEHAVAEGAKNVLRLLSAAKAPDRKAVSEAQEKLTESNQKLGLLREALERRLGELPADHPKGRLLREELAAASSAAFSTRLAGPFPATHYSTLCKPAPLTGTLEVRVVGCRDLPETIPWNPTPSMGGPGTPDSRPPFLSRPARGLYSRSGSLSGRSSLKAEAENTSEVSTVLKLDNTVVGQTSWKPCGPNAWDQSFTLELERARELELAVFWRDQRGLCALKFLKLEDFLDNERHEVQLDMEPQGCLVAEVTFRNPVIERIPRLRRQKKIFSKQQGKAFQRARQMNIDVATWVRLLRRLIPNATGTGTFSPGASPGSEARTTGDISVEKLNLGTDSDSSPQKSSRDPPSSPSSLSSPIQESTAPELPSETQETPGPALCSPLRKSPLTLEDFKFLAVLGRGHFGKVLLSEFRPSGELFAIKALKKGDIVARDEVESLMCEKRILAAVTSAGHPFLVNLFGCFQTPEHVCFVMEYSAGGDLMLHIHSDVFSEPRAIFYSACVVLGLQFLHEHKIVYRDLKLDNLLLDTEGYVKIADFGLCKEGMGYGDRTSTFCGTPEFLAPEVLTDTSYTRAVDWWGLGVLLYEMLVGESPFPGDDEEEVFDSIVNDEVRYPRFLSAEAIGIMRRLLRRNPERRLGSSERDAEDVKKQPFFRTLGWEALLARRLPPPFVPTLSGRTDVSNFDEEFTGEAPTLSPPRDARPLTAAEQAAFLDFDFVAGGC
T5 sequence (O95819 whole entry): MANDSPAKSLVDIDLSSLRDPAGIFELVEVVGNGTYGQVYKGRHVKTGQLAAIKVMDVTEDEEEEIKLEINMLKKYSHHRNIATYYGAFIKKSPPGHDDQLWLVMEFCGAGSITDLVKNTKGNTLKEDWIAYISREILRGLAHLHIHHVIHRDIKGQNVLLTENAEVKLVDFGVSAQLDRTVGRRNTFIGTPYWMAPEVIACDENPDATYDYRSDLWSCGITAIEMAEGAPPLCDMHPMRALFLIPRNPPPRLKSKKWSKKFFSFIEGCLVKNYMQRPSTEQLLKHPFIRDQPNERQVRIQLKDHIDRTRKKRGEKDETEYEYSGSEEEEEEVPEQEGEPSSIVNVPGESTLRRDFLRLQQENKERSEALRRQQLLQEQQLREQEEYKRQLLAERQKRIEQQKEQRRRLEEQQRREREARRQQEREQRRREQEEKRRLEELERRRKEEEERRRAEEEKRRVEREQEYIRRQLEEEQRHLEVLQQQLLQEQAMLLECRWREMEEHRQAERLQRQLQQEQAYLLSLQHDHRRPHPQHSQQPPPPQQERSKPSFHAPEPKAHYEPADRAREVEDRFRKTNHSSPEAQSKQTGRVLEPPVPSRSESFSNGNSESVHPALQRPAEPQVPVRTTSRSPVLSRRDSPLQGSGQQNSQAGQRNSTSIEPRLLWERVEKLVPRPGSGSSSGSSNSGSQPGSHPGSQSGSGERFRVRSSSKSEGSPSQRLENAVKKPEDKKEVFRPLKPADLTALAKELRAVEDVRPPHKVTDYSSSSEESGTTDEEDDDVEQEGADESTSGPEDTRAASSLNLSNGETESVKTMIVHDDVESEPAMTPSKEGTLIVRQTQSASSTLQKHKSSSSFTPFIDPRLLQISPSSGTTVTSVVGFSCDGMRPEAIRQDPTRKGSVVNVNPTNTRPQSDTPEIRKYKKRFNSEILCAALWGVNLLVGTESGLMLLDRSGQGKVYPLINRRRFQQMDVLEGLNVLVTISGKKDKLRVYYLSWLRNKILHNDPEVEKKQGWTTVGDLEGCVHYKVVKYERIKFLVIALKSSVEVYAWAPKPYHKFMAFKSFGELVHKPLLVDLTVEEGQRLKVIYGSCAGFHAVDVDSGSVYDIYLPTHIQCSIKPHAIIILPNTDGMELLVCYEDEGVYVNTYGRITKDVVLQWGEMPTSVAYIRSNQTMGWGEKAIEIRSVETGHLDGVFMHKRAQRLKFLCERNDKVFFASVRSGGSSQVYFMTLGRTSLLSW
T11 sequence (P12931 whole entry): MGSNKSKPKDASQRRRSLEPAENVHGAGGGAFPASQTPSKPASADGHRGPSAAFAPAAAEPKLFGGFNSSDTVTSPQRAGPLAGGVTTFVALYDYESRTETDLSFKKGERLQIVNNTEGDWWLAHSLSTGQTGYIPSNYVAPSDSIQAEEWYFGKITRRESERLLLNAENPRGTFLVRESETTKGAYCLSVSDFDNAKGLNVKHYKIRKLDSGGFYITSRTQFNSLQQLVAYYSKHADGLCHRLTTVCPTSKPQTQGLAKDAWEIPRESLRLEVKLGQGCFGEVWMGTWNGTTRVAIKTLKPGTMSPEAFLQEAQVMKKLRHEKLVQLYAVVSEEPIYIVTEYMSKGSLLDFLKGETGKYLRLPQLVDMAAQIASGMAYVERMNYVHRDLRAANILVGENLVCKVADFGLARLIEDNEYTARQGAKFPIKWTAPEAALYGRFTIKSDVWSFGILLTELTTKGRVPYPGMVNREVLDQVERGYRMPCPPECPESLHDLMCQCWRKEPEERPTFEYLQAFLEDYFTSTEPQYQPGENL
T4 sequence (P07332 whole entry): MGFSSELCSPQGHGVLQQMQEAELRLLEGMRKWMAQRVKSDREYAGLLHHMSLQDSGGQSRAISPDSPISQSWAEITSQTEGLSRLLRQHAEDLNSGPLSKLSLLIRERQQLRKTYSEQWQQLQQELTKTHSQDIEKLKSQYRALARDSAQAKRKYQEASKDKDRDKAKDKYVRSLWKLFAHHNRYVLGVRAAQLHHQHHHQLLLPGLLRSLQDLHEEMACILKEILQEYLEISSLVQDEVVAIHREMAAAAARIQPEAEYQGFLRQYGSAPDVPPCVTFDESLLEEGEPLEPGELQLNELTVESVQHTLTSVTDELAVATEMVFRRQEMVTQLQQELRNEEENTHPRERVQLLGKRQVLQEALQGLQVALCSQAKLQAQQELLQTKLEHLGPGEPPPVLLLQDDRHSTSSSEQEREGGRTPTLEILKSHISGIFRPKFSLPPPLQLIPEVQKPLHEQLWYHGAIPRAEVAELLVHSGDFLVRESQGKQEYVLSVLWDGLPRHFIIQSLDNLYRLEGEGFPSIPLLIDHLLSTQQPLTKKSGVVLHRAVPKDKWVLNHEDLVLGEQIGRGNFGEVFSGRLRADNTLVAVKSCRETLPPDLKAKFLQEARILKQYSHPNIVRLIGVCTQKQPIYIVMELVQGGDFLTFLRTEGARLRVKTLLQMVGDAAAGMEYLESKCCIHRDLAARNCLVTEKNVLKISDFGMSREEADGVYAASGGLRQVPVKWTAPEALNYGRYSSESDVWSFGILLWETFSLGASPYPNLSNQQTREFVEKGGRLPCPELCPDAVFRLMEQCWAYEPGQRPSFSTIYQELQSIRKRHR
T7 sequence (P68400 whole entry): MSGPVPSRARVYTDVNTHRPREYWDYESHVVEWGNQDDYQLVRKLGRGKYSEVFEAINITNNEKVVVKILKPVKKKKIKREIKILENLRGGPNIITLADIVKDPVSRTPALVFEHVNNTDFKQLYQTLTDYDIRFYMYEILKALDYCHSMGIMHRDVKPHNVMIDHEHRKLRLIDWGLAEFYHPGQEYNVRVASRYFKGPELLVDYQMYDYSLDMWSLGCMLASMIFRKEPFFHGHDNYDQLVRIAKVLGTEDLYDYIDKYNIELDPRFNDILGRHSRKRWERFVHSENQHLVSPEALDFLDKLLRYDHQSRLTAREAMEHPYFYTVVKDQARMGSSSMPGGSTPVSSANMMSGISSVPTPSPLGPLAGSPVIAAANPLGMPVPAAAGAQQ

Turning to `CCN1CCN(Cc2ccc(NC(=O)c3ccc(C)c(NC(=O)c4cncc(-c5cccs5)c4)c3)cc2C(F)(F)F)CC1` [ALW-II-41-27], the remaining binding at 10 µM at KinomeScan kinase panel [1] was > 30%; at KinomeScan kinase panel [2] (ABL1(H396P)), 0.5%; on KinomeScan kinase panel [3] (kinase TRKA) it was 4.4%; on KinomeScan kinase panel [4], 0.8%; on KinomeScan kinase panel [5], 6.4%; at KinomeScan kinase panel [6], > 30%. Besides, the remaining binding at 10 µM at KinomeScan kinase panel [7] was > 30%; at KinomeScan kinase panel [8], > 30%; on KinomeScan kinase panel [9] it was 26%; at KinomeScan kinase panel [10] (PLK4, 10 µM), > 30%; on KinomeScan kinase panel [11] (kinase SRC), 0.1%.
For the compound `CCN1CCN(Cc2ccc(NC(=O)c3ccc(C)c(/C=C/c4cnc5[nH]ccc5c4Cl)c3)cc2C(F)(F)F)CC1` [HG-6-63-01, (E)-3-(2-(4-chloro-1H-pyrrolo[2,3-b]pyridin-5-yl)vinyl)-N-(4-((4-ethylpiperazin-1-yl)methyl)-3-(trifluoromethyl)phenyl)-4-methylbenzamide], the remaining binding at 10 µM at KinomeScan kinase panel [1] is > 30%; at KinomeScan kinase panel [2] (ABL1(H396P)), 0.2%; on KinomeScan kinase panel [3] (TRKA), 8.2%; at KinomeScan kinase panel [4] it was 0.55%; at KinomeScan kinase panel [5], 0.3%; on KinomeScan kinase panel [6] it was > 30%. Besides, the remaining binding at 10 µM on KinomeScan kinase panel [7] is 15%; at KinomeScan kinase panel [8] it was > 30%; on KinomeScan kinase panel [9], > 30%; at KinomeScan kinase panel [10] (PLK4, 10 µM), > 30%; at KinomeScan kinase panel [11] (SRC), 0.25%.
For `CCN1CCN(Cc2ccc(NC(=O)c3ccc(C)c(C#Cc4cccnc4)c3)cc2C(F)(F)F)CC1` [XMD15-44], the remaining binding at 10 µM at KinomeScan kinase panel [1] was > 30%; at KinomeScan kinase panel [2] (ABL1(H396P)-nonphosphorylated), 0%; at KinomeScan kinase panel [2] (ABL1(H396P)-phosphorylated), 0%; at KinomeScan kinase panel [3] (kinase TRKA), 0.35%; at KinomeScan kinase panel [4] it was 0.75%; at KinomeScan kinase panel [5], 3.3%. Besides, the remaining binding at 10 µM at KinomeScan kinase panel [6] was > 30%; at KinomeScan kinase panel [7], > 30%; at KinomeScan kinase panel [8] it was 85%; at KinomeScan kinase panel [9], 1.6%; at KinomeScan kinase panel [10] (kinase PLK4, 10 µM), 88%; on KinomeScan kinase panel [11] (kinase SRC), 0%.
